According to patent US20100286406A1, “1,3- DIALKYLBENZIMIDAZOLE HALOGENIDES EXHIBITING REGENERATIVE, ANTI-INFLAMMATORY, AND ANTIMICROBIAL ACTIVITY” (priority 2007, published 2010):

Test system: burn caused by light radiation
Test: Light radiation burn model, epithelization of burn wounds (regenerative activity)
Type: in vivo
Text: The regenerative activity of the claimed compounds was studied on a model of a burn caused by light radiation on a specialized apparatus. […] Unless this medication is applied to a burn, a keloidal scar is produced on the burn area and no skin appendages are formed.

In the case of `CC(C)(CO)C(O)C(=O)NCCCO` (centres unmarked) [Panthenol, 2,4-dioxy-N-(3-oxypropyl)-3,3-dimethylbutyramide], the “Percentage of fully epithelized burn wounds” value (25th day of observations) was 55% and the “Percentage of fully epithelized burn wounds” value (30th day of observations) was 85%.
